In PubChem BioAssay AID2060886 (Molecular Pharmacology Branch, DTP, NCI, 2025):

Test system: 653999-131-R-J2-PDC complex spheroids, growth inhibition
Test: Anticancer human tumor 653999-131-R-J2-PDC patient-derived lung adenocarcinoma cell line growth inhibition [RAS]
Conditions: for IC50: curve of first compound; for viability, T/C: stronger effect = lower value
Procedure, shortened: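 Tumour cells grown as complex spheroids with HUVEC endothelial cells and mesenchymal stem cells, treated with RAS pathway inhibitor combinations. Each agent spans half-log steps from near clinical Cmax, or 10 microM where Cmax is unknown.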
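Further: spheroids exposed to the agents for seven days before the readout.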

## O=C(c1ccc(F)c(F)c1Nc1ccc(I)cc1F)N1CC(O)([C@@H]2CCCCN2)C1 + C#Cc1c(F)ccc2cc(O)cc(-c3ncc4c(N5CC6CCC(C5)N6)nc(OCC56CCCN5CC(F)C6)nc4c3F)c12
Second compound 0.0316 µM
  IC50: 92.7 nM
Second compound 0.1 µM
  IC50: 54.7 nM
Second compound 0.316 µM
  IC50: 106 nM
Second compound 1 µM
  IC50: < 3.16 nM
Second compound 3.16 µM
  IC50: < 3.16 nM
Second compound 10 µM
  IC50: < 3.16 nM
Second compound 0.0316 µM, first compound 0.00316 µM
  viability, T/C: 88.1%
Second compound 0.0316 µM, first compound 0.01 µM
  viability, T/C: 90.7%
Second compound 0.0316 µM, first compound 0.0316 µM
  viability, T/C: 60.7%
Second compound 0.0316 µM, first compound 0.1 µM
  viability, T/C: 52.7%
Second compound 0.0316 µM, first compound 0.316 µM
  viability, T/C: 25.6%
Second compound 0.0316 µM, first compound 1 µM
  viability, T/C: 7.56%
Second compound 0.1 µM, first compound 0.00316 µM
  viability, T/C: 70.9%
Second compound 0.1 µM, first compound 0.01 µM
  viability, T/C: 70.6%
Second compound 0.1 µM, first compound 0.0316 µM
  viability, T/C: 63%
Second compound 0.1 µM, first compound 0.1 µM
  viability, T/C: 34.6%
Second compound 0.1 µM, first compound 0.316 µM
  viability, T/C: 24%
Second compound 0.1 µM, first compound 1 µM
  viability, T/C: 8.72%
Second compound 0.316 µM, first compound 0.00316 µM
  viability, T/C: 62.3%
Second compound 0.316 µM, first compound 0.01 µM
  viability, T/C: 60.1%
Second compound 0.316 µM, first compound 0.0316 µM
  viability, T/C: 66.6%
Second compound 0.316 µM, first compound 0.1 µM
  viability, T/C: 49.9%
Second compound 0.316 µM, first compound 0.316 µM
  viability, T/C: 23.8%
Second compound 0.316 µM, first compound 1 µM
  viability, T/C: 8.41%
Second compound 1 µM, first compound 0.00316 µM
  viability, T/C: 50.1%
Second compound 1 µM, first compound 0.01 µM
  viability, T/C: 39.8%
Second compound 1 µM, first compound 0.0316 µM
  viability, T/C: 51.2%
Second compound 1 µM, first compound 0.1 µM
  viability, T/C: 43.4%
Second compound 1 µM, first compound 0.316 µM
  viability, T/C: 19.1%
Second compound 1 µM, first compound 1 µM
  viability, T/C: 6.71%
Second compound 3.16 µM, first compound 0.00316 µM
  viability, T/C: 34.5%
Second compound 3.16 µM, first compound 0.01 µM
  viability, T/C: 31.5%
Second compound 3.16 µM, first compound 0.0316 µM
  viability, T/C: 31.6%
Second compound 3.16 µM, first compound 0.1 µM
  viability, T/C: 21.4%
Second compound 3.16 µM, first compound 0.316 µM
  viability, T/C: 12.8%
Second compound 3.16 µM, first compound 1 µM
  viability, T/C: 5.39%
Second compound 10 µM, first compound 0.00316 µM
  viability, T/C: 26%
Second compound 10 µM, first compound 0.01 µM
  viability, T/C: 22.1%
Second compound 10 µM, first compound 0.0316 µM
  viability, T/C: 11.9%
Second compound 10 µM, first compound 0.1 µM
  viability, T/C: 11.9%
Second compound 10 µM, first compound 0.316 µM
  viability, T/C: 8.98%
Second compound 10 µM, first compound 1 µM
  viability, T/C: 2.85%

## CCc1c2c(nc3ccc(O)cc13)-c1cc3c(c(=O)n1C2)COC(=O)[C@]3(O)CC + CCn1c(-c2cccnc2C(C)OC)c2c3cc(ccc31)N1CCOC(CC(NC(=O)C(C(C)C)N(C)C(=O)C3(F)CCN(C(=O)C#CC(C)(C)N(C)C)CC3)C(=O)N3CCCC(N3)C(=O)OCC(C)(C)C2)C1
Second compound 0.000949 µM
  IC50: 13.3 nM
Second compound 0.003 µM
  IC50: 12.6 nM
Second compound 0.00949 µM
  IC50: 14.8 nM
Second compound 0.03 µM
  IC50: 10.6 nM
Second compound 0.0949 µM
  IC50: 7.78 nM
Second compound 0.3 µM
  IC50: 5.63 nM
Second compound 0.000949 µM, first compound 0.000949 µM
  viability, T/C: 92.6%
Second compound 0.000949 µM, first compound 0.003 µM
  viability, T/C: 84.4%
Second compound 0.000949 µM, first compound 0.00949 µM
  viability, T/C: 52%
Second compound 0.000949 µM, first compound 0.03 µM
  viability, T/C: 35.9%
Second compound 0.000949 µM, first compound 0.0949 µM
  viability, T/C: 30%
Second compound 0.000949 µM, first compound 0.3 µM
  viability, T/C: 16.7%
Second compound 0.003 µM, first compound 0.000949 µM
  viability, T/C: 86%
Second compound 0.003 µM, first compound 0.003 µM
  viability, T/C: 77.3%
Second compound 0.003 µM, first compound 0.00949 µM
  viability, T/C: 52.8%
Second compound 0.003 µM, first compound 0.03 µM
  viability, T/C: 35.9%
Second compound 0.003 µM, first compound 0.0949 µM
  viability, T/C: 28%
Second compound 0.003 µM, first compound 0.3 µM
  viability, T/C: 20.4%
Second compound 0.00949 µM, first compound 0.000949 µM
  viability, T/C: 104%
Second compound 0.00949 µM, first compound 0.003 µM
  viability, T/C: 84.1%
Second compound 0.00949 µM, first compound 0.00949 µM
  viability, T/C: 55.2%
Second compound 0.00949 µM, first compound 0.03 µM
  viability, T/C: 37.8%
Second compound 0.00949 µM, first compound 0.0949 µM
  viability, T/C: 28.7%
Second compound 0.00949 µM, first compound 0.3 µM
  viability, T/C: 17.3%
Second compound 0.03 µM, first compound 0.000949 µM
  viability, T/C: 91.8%
Second compound 0.03 µM, first compound 0.003 µM
  viability, T/C: 75.7%
Second compound 0.03 µM, first compound 0.00949 µM
  viability, T/C: 51.9%
Second compound 0.03 µM, first compound 0.03 µM
  viability, T/C: 31.4%
Second compound 0.03 µM, first compound 0.0949 µM
  viability, T/C: 22.3%
Second compound 0.03 µM, first compound 0.3 µM
  viability, T/C: 16.3%
Second compound 0.0949 µM, first compound 0.000949 µM
  viability, T/C: 90.6%
Second compound 0.0949 µM, first compound 0.003 µM
  viability, T/C: 66.4%
Second compound 0.0949 µM, first compound 0.00949 µM
  viability, T/C: 47.5%
Second compound 0.0949 µM, first compound 0.03 µM
  viability, T/C: 29.9%
Second compound 0.0949 µM, first compound 0.0949 µM
  viability, T/C: 19.3%
Second compound 0.0949 µM, first compound 0.3 µM
  viability, T/C: 12.4%
Second compound 0.3 µM, first compound 0.000949 µM
  viability, T/C: 81%
Second compound 0.3 µM, first compound 0.003 µM
  viability, T/C: 57.8%
Second compound 0.3 µM, first compound 0.00949 µM
  viability, T/C: 44.9%
Second compound 0.3 µM, first compound 0.03 µM
  viability, T/C: 26.3%
Second compound 0.3 µM, first compound 0.0949 µM
  viability, T/C: 17.6%
Second compound 0.3 µM, first compound 0.3 µM
  viability, T/C: 11.5%

## Nc1ccn(C2OC(CO)C(O)C2(F)F)c(=O)n1 (stereo unspecified) + CCn1c(-c2cc(N3CCN(C)CC3)cnc2C(C)OC)c2c3cc(ccc31)-c1csc(n1)CC(NC(=O)C1CC1C)C(=O)N1CCCC(N1)C(=O)OCC(C)(C)C2
Second compound 0.000949 µM
  IC50: 14.1 nM
Second compound 0.003 µM
  IC50: 6.3 nM
Second compound 0.00949 µM
  IC50: < 3.16 nM
Second compound 0.03 µM
  IC50: < 3.16 nM
Second compound 0.0949 µM
  IC50: < 3.16 nM
Second compound 0.3 µM
  IC50: < 3.16 nM
Second compound 0.000949 µM, first compound 0.00316 µM
  viability, T/C: 67.6%
Second compound 0.000949 µM, first compound 0.01 µM
  viability, T/C: 57%
Second compound 0.000949 µM, first compound 0.0316 µM
  viability, T/C: 34.4%
Second compound 0.000949 µM, first compound 0.1 µM
  viability, T/C: 34.4%
Second compound 0.000949 µM, first compound 0.316 µM
  viability, T/C: 25.9%
Second compound 0.000949 µM, first compound 1 µM
  viability, T/C: 23%
Second compound 0.003 µM, first compound 0.00316 µM
  viability, T/C: 59.1%
Second compound 0.003 µM, first compound 0.01 µM
  viability, T/C: 43.1%
Second compound 0.003 µM, first compound 0.0316 µM
  viability, T/C: 31.8%
Second compound 0.003 µM, first compound 0.1 µM
  viability, T/C: 20.8%
Second compound 0.003 µM, first compound 0.316 µM
  viability, T/C: 16.2%
Second compound 0.003 µM, first compound 1 µM
  viability, T/C: 19.7%
Second compound 0.00949 µM, first compound 0.00316 µM
  viability, T/C: 45.6%
Second compound 0.00949 µM, first compound 0.01 µM
  viability, T/C: 30.9%
Second compound 0.00949 µM, first compound 0.0316 µM
  viability, T/C: 25%
Second compound 0.00949 µM, first compound 0.1 µM
  viability, T/C: 19.3%
Second compound 0.00949 µM, first compound 0.316 µM
  viability, T/C: 18.2%
Second compound 0.00949 µM, first compound 1 µM
  viability, T/C: 15.1%
Second compound 0.03 µM, first compound 0.00316 µM
  viability, T/C: 37.3%
Second compound 0.03 µM, first compound 0.01 µM
  viability, T/C: 29.4%
Second compound 0.03 µM, first compound 0.0316 µM
  viability, T/C: 20.3%
Second compound 0.03 µM, first compound 0.1 µM
  viability, T/C: 14.7%
Second compound 0.03 µM, first compound 0.316 µM
  viability, T/C: 12.8%
Second compound 0.03 µM, first compound 1 µM
  viability, T/C: 11.6%
Second compound 0.0949 µM, first compound 0.00316 µM
  viability, T/C: 26.7%
Second compound 0.0949 µM, first compound 0.01 µM
  viability, T/C: 30.3%
Second compound 0.0949 µM, first compound 0.0316 µM
  viability, T/C: 18.8%
Second compound 0.0949 µM, first compound 0.1 µM
  viability, T/C: 16.7%
Second compound 0.0949 µM, first compound 0.316 µM
  viability, T/C: 11.7%
Second compound 0.0949 µM, first compound 1 µM
  viability, T/C: 11%
Second compound 0.3 µM, first compound 0.00316 µM
  viability, T/C: 25.9%
Second compound 0.3 µM, first compound 0.01 µM
  viability, T/C: 24.5%
Second compound 0.3 µM, first compound 0.0316 µM
  viability, T/C: 20.7%
Second compound 0.3 µM, first compound 0.1 µM
  viability, T/C: 18.4%
Second compound 0.3 µM, first compound 0.316 µM
  viability, T/C: 13.9%
Second compound 0.3 µM, first compound 1 µM
  viability, T/C: 12.8%
